Assay results: patent US20150064754A1, “BIOPRODUCTION OF CHEMICALS” (OPX Biotechnologies, Inc., priority 2013, published 2015)

Assays:
E. coli strains = assay: Growth inhibition of E. coli strains grown in the presence of 3-HP; type: cell-based; conditions: levels as low as
E. coli ACCase = E. coli ACCase (Escherichia coli, UniProt P0A9Q5+P0ABD5+P0ABD8+P24182); conditions: FIG. 4; for decrease of the activity of the ACCase enzyme relative to control: salts of 3-HP levels near 0.66M; for decrease of the activity of the ACCase enzyme: salt levels near 0.44M
Sequence of E. coli ACCase (P0A9Q5 whole entry): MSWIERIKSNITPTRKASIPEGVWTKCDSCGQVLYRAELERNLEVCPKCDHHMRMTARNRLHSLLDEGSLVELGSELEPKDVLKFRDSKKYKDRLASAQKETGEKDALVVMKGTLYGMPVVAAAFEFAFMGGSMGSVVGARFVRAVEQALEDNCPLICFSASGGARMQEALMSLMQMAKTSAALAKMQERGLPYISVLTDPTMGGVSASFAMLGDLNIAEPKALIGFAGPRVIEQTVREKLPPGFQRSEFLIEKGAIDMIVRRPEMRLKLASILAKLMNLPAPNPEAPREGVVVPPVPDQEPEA
Sequence of E. coli ACCase (P0ABD5 whole entry): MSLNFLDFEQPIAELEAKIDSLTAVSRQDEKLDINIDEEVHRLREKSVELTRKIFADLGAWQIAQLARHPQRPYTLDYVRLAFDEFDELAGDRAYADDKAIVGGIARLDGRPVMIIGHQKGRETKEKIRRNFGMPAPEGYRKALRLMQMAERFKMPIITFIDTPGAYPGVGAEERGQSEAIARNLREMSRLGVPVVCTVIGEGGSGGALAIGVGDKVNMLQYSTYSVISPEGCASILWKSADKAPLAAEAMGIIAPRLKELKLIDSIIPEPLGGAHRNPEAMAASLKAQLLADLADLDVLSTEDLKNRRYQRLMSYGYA
Method: Levels of greater than 0.66M (60 g/L) are expected to be present for commercially viable commercial production of 3-HP.
Each gene was amplified by PCRs with Pfu Ultra II HS using the manufacturer's instructions, and the PCR products were purified using the Zymo PCR Cleanup kit. Concentrations of products were measured using the Nanodrop spectophotometer. The Gibson Assembly kit (NEB) was used to construct plasmids expressing the ACCase subunit genes as directed by the manufacturer. The effect of NH4-3-HP and NH4Cl on H. elongata ACCase was tested and compared to the E. coli ACCase.

H. elongata ACCase = assay: Salt inhibition of ACCase enzyme activity (H. elongata ACCase); type: biochemical, Halomonas elongata; conditions: FIG. 4
Method: Concentrations of products were measured using the Nanodrop spectophotometer.

3-HP production = assay: 1 L fermentation, 3HP titer with overexpression of rhtA exporter; type: cell-based, E. coli; conditions: control plasmid without rhtA, FIG. 7
Method: A known chemical exporter from E. coli that has been previously characterized for homoserine transport, rhtA, was evaluated for increased production of 3-HP. A mutant version of the exporter, rhtA(P2S) (SEQ ID NO. 30 nucleic acid, SEQ ID NO. 31 protein) was synthesized behind the PtpiA promoter and inserted into the pTRC-PyibD-MCR plasmid behind a terminator using the Gibson Assembly kit (NEB) according to manufacturer's instructions. The effects of overexpression of rhtA were evaluated in 1 L fermentation compared to the control plasmid without rhtA. […] Construction of plasmids expressing another putative transporter, ydcO (SEQ ID NO. 32 nucleic acid, SEQ ID NO. 33 protein) is carried out in the same manner.

**Q.** How did the “3-HP level at which growth inhibition is demonstrated” value (E. coli strains) turn out when `O=C(O)CCO` [3-HP, 3-hydroxypropionic acid] was run?
**A.** 20 g/L

**Q.** Which results are given for `N.O=C(O)CCO` [NH4-3-HP]?
**A.** effect of salt on E. coli ACCase (E. coli ACCase): significantly inhibited; decrease of the activity of the ACCase enzyme relative to control (E. coli ACCase): approximately 80%; effect of salt on H. elongata ACCase compared to the E. coli ACCase (H. elongata ACCase): less affected

**Q.** Which results are given for `Cl.N` [NH4Cl]?
**A.** effect of salt on E. coli ACCase (E. coli ACCase): significantly inhibited; decrease of the activity of the ACCase enzyme (E. coli ACCase): approximately 80%; effect of salt on H. elongata ACCase compared to the E. coli ACCase (H. elongata ACCase): less affected

**Q.** How did the “decrease of the activity of the ACCase enzyme relative to control” value (E. coli ACCase) turn out when `O=C([O-])CCO.[Na+]` [Na-3-HP] was run?
**A.** approximately 80%

**Q.** For `[Cl-].[Na+]` [NaCl], which “decrease of the activity of the ACCase enzyme” value (E. coli ACCase) is on record?
**A.** approximately 80%

B1: rhtA: chemical exporter from E. coli characterized for homoserine transport; mutant version rhtA(P2S) overexpressed (protein)
chain: MSGSLRKMPVWLPIVILLVAMASIQGGASLAKSLFPLVGAPGVTALRLALGTLILIAFFKPWRLRFAKEQRLPLLFYGVSLGGMNYLFYLSIQTVPLGIAVALEFTGPLAVALFSSRRPVDFVWVVLAVLGLWFLLPLGQDVSHVDLTGCALALGAGACWAIYILSGQRAGAEHGPATVAIGSLIAALIFVPIGALQAGEALWHWSVIPLGLAVAILSTALPYSLEMIALTRLPTRTFGTLMSMEPALAAVSGMIFLGETLTPIQLLALGAIIAASMGSTLTVRKESKIKELDIN
**Q.** With B1 as the molecule, how does the “3HP titer compared to the control production strain” value (3-HP production) read?
**A.** significant improvement
